Experimental data taken from US20190060391A1, “POWDER FORMULATION HAVING HY[…] HYP[…] AND METHOD FOR PREPARING THE SAME” (INFINITUS (CHINA) COMPANY LTD., priority 2017, published 2019).
Structures can show the parent of a compound that is named as a salt.

What was measured:
Body weight of rats = type: in vivo, SD rat; set-up: unit not given here; conditions: diabetic rats, positive control 170 mg/kg
Source text: The rats were weighed after 1-day adaptive feed, and the rats were weighed once a week and recorded.

[1] = Organ coefficient of rats; type: in vivo, SD rat; conditions: diabetic rats, positive control 170 mg/kg
Experimental: (§1) The rats were subjected to euthanasia and dissection. Hearts, livers, spleens, lungs, kidneys and parts of the pancreases of the rats were weighed, imaged and recorded, respectively. The organ coefficients were calculated. In addition, pancreases from each group were respectively immersed into formalin-containing bottles.

[2] = Organ coefficient of mice; type: in vivo, ICR mouse; conditions: alloxan mice, positive control 230 mg/kg
Experimental: as §1, with “mice” for “rats”, “and” for “and parts of the”, “bottles, and the sections were sent for pathological examination.” for “bottles.”
After administration of the test sample, the hearts, livers, spleens, lungs, kidneys and pancreases of the mice in each group were weighed respectively, and organ coefficients of each group were compared.

diabetic rats [3] = assay: Fasting blood glucose and glucose tolerance in diabetic rats (high calorie feed plus alloxan); type: in vivo, SD rat; conditions: for Blood Glucose at 0 hour / Blood Glucose at 2th hour / Blood Glucose at 0.5 hour: rats, positive control 170 mg/kg
Experimental: (§2) Method for preparing the solution of the test sample (500 mg/kg): 2.3011 g of the test sample was precisely weighed and 46 mL of distilled water was added to prepare a solution of 0.05 g/mL, i.e., high-dose group of the test sample (500 mg/kg, 1 mL/100 g), which was equal to 30 times the recommended amount for human.
as §2, with “(170” for “(500”, “0.6970” for “2.3011”, “41” for “46”, “0.017” for “0.05”, “medium-dose” for “high-dose”, “10” for “30”
as §2, with “(85” for “(500”, “0.3396” for “2.3011”, “40” for “46”, “0.0085” for “0.05”, “low-dose” for “high-dose”, “5” for “30”
Method for preparing the positive control sample: the metformin hydrochloride tablet was milled into fine powders by a mortar, 0.9329 g powder was precisely weighed and transferred to a 100 mL-beaker. 43 mL of distilled water was added by using a 100 mL-graduated cylinder, preparing solution with a concentration of 0.017 g/mL, i.e., metformin positive control group for rat (170 mg/kg, 1 ml/100 g), which was equal to 10 times the recommended amount for human.
After 5-day of adaptive housing with normal feeding, the rats were fasted for 3 to 4 hours and blood samples were taken from the tails. The fasting blood glucose value, which was the blood glucose value before administration of glucose (0 hour), was tested. After administration of 2.5 g/kgBW glucose, the blood glucose level was tested at the 0.5 hour and the 2nd hour as the basal value of that batch of animals. The rats were divided into 6 groups according to the blood glucose value at 0 hour and the 0.5 hour, including one blank group, one positive control group, one model group and 3 dosing groups of the test sample. There were 20 rats in the high-dose group, and 18 rats in the other groups. The blank group was not treated. The positive control group was administered with metformin solution by intragastric gavage. The 3 dosing groups of the test sample were administered with test sample solutions of different concentrations by intragastric gavage. The model group was administered with the solvent of the same volume. […] Normal feeds were provided to all groups. One week later, high calorie feeds were provided to the model group, positive control group and three dosing groups of the test sample. 30 days after the feeding, the rats were fasted for 24 hours. The model group and the three dosing groups of the test sample were respectively peritoneal injected with alloxan of 200 mg/kgBW (the injection amount was […] weight) on the base of high calorie feed. The model group and 3 dosing groups of the test sample were continuously fed on high calorie feeds for 3 days. When the experiment ended, animals in each group were fasted for 3 to 4 hours, and the fasting blood glucose, glucose tolerance and area under the blood glucose curve were measured.

alloxan-induced mice = assay: Fasting blood glucose and glucose tolerance in alloxan hyperglycemia model mice; type: in vivo, ICR mouse; conditions: for Blood glucose decreasing rate of the mice: positive control 230 mg/Kg; for Blood glucose of the mice: positive control 230 mg/kg
Experimental: as §2
as §2, with “(170” for “(500”, “0.6970” for “2.3011”, “41” for “46”, “0.017” for “0.05”, “medium-dose” for “high-dose”, “10” for “30”
as §2, with “(85” for “(500”, “0.3396” for “2.3011”, “40” for “46”, “0.0085” for “0.05”, “low-dose” for “high-dose”, “5” for “30”
Method for preparing the positive control sample: the metformin hydrochloride tablet was milled into fine powders by a mortar, 0.1470 g powder was precisely weighed and transferred to a 10 mL-centrifugal tube. 5 mL of distilled water was added by a pipette to prepare a solution with a concentration of 0.023 g/mL, i.e., metformin positive control group for mouse (230 mg/kg, 0.1 ml/10 g), which was equal to 13.5 times the recommended amount for human.
The administration of test sample to the rats lasted for 45 days, and the administration to mice lasted for 55 days.
After 3-day of adaptive housing with normal feeding, 15 mice were randomly chosen and subjected to fasting for 3 to 5 hours. The fasting blood glucose value was measured as the basal blood glucose value of this batch of animals. Thereafter, the mice were subjected to fasting for 24 hours (with free access to water). Except for the blank group and the negative control group, 96 mg/kg of alloxan (fresh prepared) were injected via caudal vein to establish the model, at an administration amount of 0.1 mL/10 g. 4 days later, the animals were fasted for 3 to 5 hours and the blood glucose was tested. Animals with blood glucose of 10 to 25 mmol/L were considered as hyperglycemia model animals. The fasting blood glucose value of mice was tested every two week. After the experiments, animals in each group were fasted for 3 to 4 hours, and the fasting blood glucose, glucose tolerance, blood glucose decreasing rate and the area under the blood glucose curve were tested.

Body weight of mice = type: in vivo, ICR mouse; conditions: alloxan mice, positive control 230 mg/kg
Source text: The mice were weighed after 1-day adaptive feed, and the mice were weighed once a week and recorded. The administration of test sample to the rats lasted for 45 days, and the administration to mice lasted for 55 days.

diabetic rats [4] = assay: Cholesterol level and triglyceride level in serum of rats; type: in vivo, SD rat; conditions: positive control 170 mg/kg
Experimental: After the experiment, the rats in each group were fasted for 3 to 4 hours and peritoneal injected with pentobarbital sodium solution (1 mL/100 g) for anesthesia. 8 mL of blood was taken from the femoral artery and centrifuged at 4500 r for 6 minutes at 4° C. The serum was taken and the cholesterol level was tested by a cholesterol kit, and the triglyceride level was tested by a triglyceride kit.

Heart Coefficient [1]: 0.36 ± 0.06
Kidney Coefficient [1]: 0.88 ± 0.20
Liver Coefficient [1]: 3.36 ± 0.48
Lung Coefficient [1]: 0.53 ± 0.15
Pancreas Coefficient [1]: 0.37 ± 0.13
Spleen Coefficient [1]: 0.16 ± 0.09
Heart Coefficient [2]: 0.50 ± 0.09
Kidney Coefficient [2]: 2.17 ± 0.61
Liver Coefficient [2]: 4.96 ± 1.67
Lung Coefficient [2]: 0.67 ± 0.14
Pancreas Coefficient [2]: 0.76 ± 0.31
Spleen Coefficient [2]: 0.47 ± 0.37
Structure (SMILES): CN(C)C(=N)N=C(N)N [metformin, metformin hydrochloride]
Weight changes of rats (Body weight of rats; 3 d): 207.00 ± 10.91
Weight changes of rats (Body weight of rats; 6 d): 225.22 ± 12.01
Weight changes of rats (Body weight of rats; 8 d): 244.28 ± 10.93
Weight changes of rats (Body weight of rats; 12 d): 277.50 ± 8.25
Weight changes of rats (Body weight of rats; 22 d): 325.89 ± 18.39
Weight changes of rats (Body weight of rats; 28 d): 373.67 ± 21.40
Weight changes of rats (Body weight of rats; 35 d): 396.22 ± 23.32
Weight changes of rats (Body weight of rats; 42 d): 403.83 ± 21.22
Weight changes of rats (Body weight of rats; 45 d): 361.19 ± 27.43
Area under the blood glucose curve vs model group (in words) (diabetic rats [3]; diabetic rats, glucose tolerance test): showed significant differences
Effect on fasting blood glucose vs model group (in words) (diabetic rats [3]; diabetic rats, positive control group): significantly improved symptom of the hyperglycemia
Blood Glucose at 0 hour (diabetic rats [3]; 4D): 6.00 ± 0.87
Blood Glucose at 2th hour (diabetic rats [3]; 4D): 5.75 ± 0.97
Blood Glucose at 0.5 hour (diabetic rats [3]; 4D): 8.33 ± 1.54
Blood Glucose at 0 hour (diabetic rats [3]; 45D): 12.05 ± 4.98
Blood Glucose at 2th hour (diabetic rats [3]; 45D): 13.31 ± 5.83
Blood Glucose at 0.5 hour (diabetic rats [3]; 45D): 15.98 ± 4.87
Blood glucose decreasing rate of the mice (alloxan-induced mice; 45 d): −20.06% ± 0.30
Blood glucose decreasing rate of the mice (alloxan-induced mice; 55 d): 21.60% ± 0.48
Blood glucose of the mice (alloxan-induced mice; 0 d): 22.87 ± 3.66 mmol/L
Blood glucose of the mice (alloxan-induced mice; 16 d): 13.60 ± 4.82 mmol/L
Blood glucose of the mice (alloxan-induced mice; 30 d): 15.57 ± 5.85 mmol/L
Blood glucose of the mice (alloxan-induced mice; 45 d): 18.28 ± 5.86 mmol/L
Blood glucose of the mice (alloxan-induced mice; 55 d): 17.93 ± 10.23 mmol/L
Effect on fasting blood glucose vs model group (in words) (alloxan-induced mice; positive control group): significantly improved symptom of the hyperglycemia
Changes of body weight of mice (Body weight of mice; 1 d): 21.1 ± 2.0 g
Changes of body weight of mice (Body weight of mice; 2 d): 23.3 ± 2.3 g
Changes of body weight of mice (Body weight of mice; 6 d): 22.1 ± 3.1 g
Changes of body weight of mice (Body weight of mice; 8 d): 22.8 ± 5.8 g
Changes of body weight of mice (Body weight of mice; 11 d): 23.1 ± 4.0 g
Changes of body weight of mice (Body weight of mice; 20 d): 25.6 ± 5.4 g
Changes of body weight of mice (Body weight of mice; 27 d): 25.3 ± 4.2 g
Changes of body weight of mice (Body weight of mice; 34 d): 27.8 ± 4.1 g
Changes of body weight of mice (Body weight of mice; 41 d): 29.1 ± 4.8 g
Changes of body weight of mice (Body weight of mice; 48 d): 27.0 ± 5.4 g
Changes of body weight of mice (Body weight of mice; 55 d): 27.2 ± 5.2 g
Cholesterol Index (diabetic rats [4]): 3.71 ± 1.57
Triglyceride Index (diabetic rats [4]): 9.47 ± 5.29
